Entries after “also recorded” stand apart in the source; their conditions may differ. Read-outs that look alike come from different tables or passages of the source.
Columns and labels:
[1] = test system: Gram-positive and Gram-negative bacteria including Pseudomonas aeruginosa; assay: In vivo efficacy against systemic infections, overall; parameters: species or system male mice (ddY); settings: for therapeutic effect on systemic infections (in words): Gram-positive and Gram-negative bacteria; for therapeutic effect compared with Compound C (in words): systemic infections with Gram-negative bacteria including Pseudomonas aeruginosa
Description: Compounds 1, 2 and C were each dissolved in deionized water or suspended in a 0.2% aqueous solution of CMC. Each of the solutions was orally administered to mice infected with each of test organisms under the conditions described below, and the medium effective doses (ED50) obtained are shown in Table II.
Male mice (ddY) weighing about 20 g
Twice, about 5 minutes and 6 hours after infection.

[2] = test system: Gram-positive and Gram-negative bacteria including Pseudomonas aeruginosa; assay: In vitro antibacterial activity, overall; type: cell-based; settings: for in vitro antibacterial activity compared with known compounds (in words): b258: Gram-negative bacteria, versus Compounds A, B, D and E, b33: versus compounds A and B; for antibacterial activity (in words): in vitro, Gram-positive and Gram-negative bacteria
Description: (§1) The minimum inhibitory concentrations (MIC, μg/ml) of the following compounds in vitro were measured by the agar dilution method of [Chemotherapy, Vol. 22, No. 16, page 1126 (1974)].

Escherichia coli P-5101 [3] = assay: In vivo efficacy against systemic infections in mice (intraperitoneal infection); parameters: species or system male mice (ddY); settings: P5101, 168 h, po, twice, about 5 minutes and 6 hours after intraperitoneal infection, observed 7 days
Description: Each of the solutions was orally administered to mice infected with each of test organisms under the conditions described below, and the medium effective doses (ED50) obtained are shown in Table II. Male mice (ddY) weighing about 20 g (3) Escherichia coli P-5101: Intraperitoneal infection with about 9×10^6 cells per mouse suspended in trypto-soy broth with 4% mucin. Twice, about 5 minutes and 6 hours after infection. |Escherichia coli P-5101 for 7 days | The numerals in the table show ED50 (mg/kg). ED50 values were | calculated in accordance with the BehrensKaerber method (Arch. Exp. Path. | Pharm., 162, 480 (1931)). | po: oral administration.

[4] = test system: Staphylococcus aureus No. 80; assay: In vitro antibacterial activity (MIC, agar dilution method); type: cell-based
Description: as §1

[5] = test system: Pseudomonas aeruginosa No. 12; assay: as above; type: cell-based; settings: Pseudomonas aeruginosa No. 12; agar dilution; read-out: minimum inhibitory concentration (MIC)
Description: as §1

[6] = test system: Staphylococcus aureus Smith; assay: as above; type: cell-based; settings: Staphylococcus aureus Smith; agar dilution; read-out: minimum inhibitory concentration (MIC)
Description: as §1

[7] = test system: Staphylococcus aureus No. 50774; assay: as above; type: cell-based; settings: Staphylococcus aureus No. 50774; agar dilution; read-out: minimum inhibitory concentration (MIC)
Description: as §1

[8] = test system: Staphylococcus aureus 209P JC-1; assay: as above; type: cell-based; settings: Staphylococcus aureus 209P JC-1; agar dilution; read-out: minimum inhibitory concentration (MIC)
Description: as §1

Escherichia coli P-140a = assay: as above; type: cell-based; settings: P140A; Escherichia coli P-140a; agar dilution; read-out: minimum inhibitory concentration (MIC)
Description: as §1

[9] = test system: Pseudomonas aeruginosa Tsuchiijima; assay: as above; type: cell-based; settings: Pseudomonas aeruginosa Tsuchiijima; agar dilution; read-out: minimum inhibitory concentration (MIC)
Description: as §1

[10] = test system: Staphylococcus epidermidis No. 8; assay: as above; type: cell-based; settings: Staphylococcus epidermidis No. 8; agar dilution; read-out: minimum inhibitory concentration (MIC)
Description: as §1

Proteus morganii Kono = assay: as above; type: cell-based; settings: Morganella morganii; Proteus morganii Kono; agar dilution; read-out: minimum inhibitory concentration (MIC)
Description: as §1

[11] = test system: Enterobacter cloacae P-2540; assay: as above; type: cell-based; settings: P2540; Enterobacter cloacae P-2540; agar dilution; read-out: minimum inhibitory concentration (MIC)
Description: as §1

[12] = test system: Shigella flexneri 4a P-330; assay: as above; type: cell-based; settings: 4AP330, read-out: minimum inhibitory concentration (MIC)
Description: as §1

[13] = test system: Serratia marcescens IFO 3736; assay: as above; type: cell-based; settings: IFO3736; Serratia marcescens IFO 3736; agar dilution; read-out: minimum inhibitory concentration (MIC)
Description: as §1

Escherichia coli P-5101 [14] = assay: as above; type: cell-based; settings: P5101; Escherichia coli P-5101; agar dilution; read-out: minimum inhibitory concentration (MIC)
Description: as §1

[15] = test system: Streptococcus faecalis P-2473; assay: as above; type: cell-based; settings: Enterococcus faecalis, P2473; Streptococcus faecalis P-2473; agar dilution; read-out: minimum inhibitory concentration (MIC)
Description: as §1

[16] = test system: Corynebacterium pyogenes C-21; assay: as above; type: cell-based; settings: C21; Corynebacterium pyogenes C-21; agar dilution; read-out: minimum inhibitory concentration (MIC)
Description: as §1

[17] = test system: Salmonella enteritidis No. 1891; assay: as above; type: cell-based; settings: Salmonella enterica; Salmonella enteritidis No. 1891; agar dilution; read-out: minimum inhibitory concentration (MIC)
Description: as §1

[18] = test system: Salmonella typhimurium S-9; assay: as above; type: cell-based; settings: Salmonella enterica; Salmonella typhimurium S-9; agar dilution; read-out: minimum inhibitory concentration (MIC)
Description: as §1

[19] = test system: Klebsiella pneumoniae No. 13; assay: as above; type: cell-based; settings: Klebsiella pneumoniae No. 13; agar dilution; read-out: minimum inhibitory concentration (MIC)
Description: as §1

[20] = test system: Escherichia coli NIHJ JC-2; assay: as above; type: cell-based
Description: as §1

[21] = test system: Streptococcus pyogenes 65A; assay: as above; type: cell-based; settings: Streptococcus pyogenes 65A; agar dilution; read-out: minimum inhibitory concentration (MIC)
Description: as §1

Proteus mirabilis P-2381 = assay: as above; type: cell-based; settings: P2381; Proteus mirabilis P-2381; agar dilution; read-out: minimum inhibitory concentration (MIC)
Description: as §1

Shigella flexneri 2a = assay: as above; type: cell-based; settings: read-out: minimum inhibitory concentration (MIC)
Description: as §1

in vivo = settings: for LD50 at 168 h: mouse, in vivo, po; for acute oral toxicity (in words): hydrochloride
Description: A solution containing each of Compounds 1 and 2 of this invention in various concentrations was orally given to male mice (ddY) at a dose of 0.1 ml per 10 g of body weight. The number of dead mice was counted after 7 days, and the value of median lethal dose (LD50, mg/kg) was calculated in accordance with the Behrens-Kaerber method.

CCn1cc(C(=O)O)c(=O)c2cc(F)c(N3CCC(N)C3)nc21.Cl (stereo not shown) [Compound 1, 7-(3-Amino-1-pyrrolidinyl)-1-ethyl-6-fluoro-1,4-dihydro-4-oxo-1,8-naphthyridine-3-carboxylic acid hydrochloride]
therapeutic effect on systemic infections (in words) [1]: potent therapeutic effects
therapeutic effect compared with Compound C (in words) [1]: better therapeutic effects
in vitro antibacterial activity compared with known compounds (in words) [2]: far better in vitro antibacterial activity
antibacterial activity (in words) [2]: very high antibacterial activities
ED50 (Escherichia coli P-5101 [3]): 1.7 mg/kg
MIC ([4]; Staphylococcus aureus, NO.80, read-out: minimum inhibitory concentration (MIC)): 0.39 µg/mL
MIC [5]: 0.78 µg/mL
MIC [6]: 0.39 µg/mL
MIC [7]: 0.2 µg/mL
MIC [8]: 0.2 µg/mL
MIC (Escherichia coli P-140a): < 0.05 µg/mL
MIC [9]: 0.78 µg/mL
MIC [10]: 0.2 µg/mL
MIC (Proteus morganii Kono): 0.2 µg/mL
MIC [11]: < 0.05 µg/mL
MIC [12]: 0.1 µg/mL
MIC [13]: 0.39 µg/mL
MIC (Escherichia coli P-5101 [14]): 0.1 µg/mL
MIC [15]: 3.13 µg/mL
MIC [16]: 0.39 µg/mL
MIC [17]: 0.1 µg/mL
MIC [18]: 0.1 µg/mL
MIC [19]: 0.2 µg/mL
MIC ([20]; NIHJJC2, Escherichia coli NIHJ JC-2, agar dilution, read-out: minimum inhibitory concentration (MIC)): 0.2 µg/mL
MIC [21]: 1.56 µg/mL
MIC (Proteus mirabilis P-2381): 0.39 µg/mL
MIC (Shigella flexneri 2a): 0.1 µg/mL
LD50 at 168 h (in vivo): > 2000 mg/kg
acute oral toxicity (in words) (in vivo): very weak; also recorded: low oral toxicity

CCn1cc(C(=O)O)c(=O)c2cc(F)c(N3CCC(NC)C3)nc21.Cl (stereo not shown) [Compound 2, 1-Ethyl-6-fluoro-1,4-dihydro-7-(3-methylamino-1-pyrrolidinyl)-4-oxo-1,8-naphthyridine-3-carboxylic acid hydrochloride]
therapeutic effect on systemic infections (in words) [1]: potent therapeutic effects
therapeutic effect compared with Compound C (in words) [1]: better therapeutic effects
in vitro antibacterial activity compared with known compounds (in words) [2]: far better in vitro antibacterial activity
antibacterial activity (in words) [2]: very high antibacterial activities
ED50 (Escherichia coli P-5101 [3]): 1.4 mg/kg
MIC ([4]; Staphylococcus aureus No. 80, agar dilution, read-out: minimum inhibitory concentration (MIC)): 0.78 µg/mL
MIC [5]: 1.56 µg/mL
MIC [6]: 0.78 µg/mL
MIC [7]: 0.78 µg/mL
MIC [8]: 0.78 µg/mL
MIC (Escherichia coli P-140a): 0.1 µg/mL
MIC [9]: 0.78 µg/mL
MIC [10]: 0.39 µg/mL
MIC (Proteus morganii Kono): 0.39 µg/mL
MIC [11]: 0.39 µg/mL
MIC [12]: 0.1 µg/mL
MIC [13]: 1.56 µg/mL
MIC (Escherichia coli P-5101 [14]): 0.2 µg/mL
MIC [15]: 6.25 µg/mL
MIC [16]: 1.56 µg/mL
MIC [17]: 0.1 µg/mL
MIC [18]: 0.2 µg/mL
MIC [19]: 0.39 µg/mL
MIC ([20]; Escherichia coli, NIHJJC2, read-out: minimum inhibitory concentration (MIC)): 0.2 µg/mL
MIC [21]: 3.13 µg/mL
MIC (Proteus mirabilis P-2381): 1.56 µg/mL
MIC (Shigella flexneri 2a): 0.2 µg/mL
LD50 at 168 h (in vivo): > 2000 mg/kg
acute oral toxicity (in words) (in vivo): very weak; also recorded: low oral toxicity

— patent US4341784A, “Naphthyridine derivatives” (priority 1979, dated 1982)
